Measurements from PubChem BioAssay (NCI).
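In this assay, cells in 96-well plates receive the compound at five concentrations for 48 hours. Endpoints are linearly interpolated between the surrounding concentrations. TGI is the concentration that stops growth completely.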

Columns and labels:
Experiment in all cases: DTP human tumour cell line panel, 48 h
[1] = system: CAKI-1 renal
[2] = system: NCI-H522 lung
[3] = system: HCT-15 colon
[4] = system: NCI-H226 lung
[5] = system: HS 578T breast
[6] = system: SF-295 CNS
[7] = system: UACC-257 melanoma
[8] = system: OVCAR-5 ovarian
[9] = system: K-562 leukemia
[10] = system: SNB-19 CNS
[11] = system: COLO 205 colon
[12] = system: OVCAR-3 ovarian
[13] = system: SNB-75 CNS
[14] = system: PC-3 prostate
[15] = system: RXF 393 renal
[16] = system: HOP-62 NSCLC
[17] = system: U251 CNS
[18] = system: EKVX NSCLC
[19] = system: HCC-2998 colon
[20] = system: UACC-62 melanoma
[21] = system: T-47D breast
[22] = system: SK-MEL-2 melanoma
[23] = system: TK-10 renal
[24] = system: A498 renal
[25] = system: MOLT-4 leukemia
[26] = system: IGROV1 ovarian
[27] = system: MALME-3M melanoma
[28] = system: KM12 colon
[29] = system: OVCAR-8 ovarian
[30] = system: HCT-116 colon
[31] = system: SW-620 colon
[32] = system: 786-0 renal
[33] = system: MCF7 breast
[34] = system: SF-268 CNS
[35] = system: MDA-N
[36] = system: A549 NSCLC
[37] = system: NCI/ADR-RES ovarian
[38] = system: HL-60(TB) leukemia
[39] = system: SK-OV-3 ovarian
[40] = system: RPMI-8226 leukemia
[41] = system: M14 melanoma
[42] = system: DU-145 prostate
[43] = system: UO-31 renal
[44] = system: NCI-H23 lung
[45] = system: MDA-MB-435
[46] = system: ACHN renal
[47] = system: SF-539 CNS
[48] = system: MDA-MB-231 breast
[49] = system: OVCAR-4 ovarian
[50] = system: SK-MEL-5 melanoma
[51] = system: SR leukemia
[52] = system: CCRF-CEM leukemia
[53] = system: HT29 colon
[54] = system: SN12C renal
[55] = system: LOX IMVI melanoma
[56] = system: BT-549 breast
[57] = system: HOP-92 NSCLC
[58] = system: SK-MEL-28 melanoma
[59] = system: NCI-H460 lung

N#CC1=C(N2CCOCC2)CCC1
TGI [1]: > 100 µM
TGI [2]: > 100 µM
TGI [3]: > 100 µM
TGI [4]: > 100 µM
TGI [5]: > 100 µM
TGI [6]: > 100 µM
TGI [7]: > 100 µM
TGI [8]: > 100 µM
TGI [9]: > 100 µM
TGI [10]: > 100 µM
TGI [11]: > 100 µM
TGI [12]: > 100 µM
TGI [13]: > 100 µM
TGI [14]: > 100 µM
TGI [15]: > 100 µM
TGI [16]: > 100 µM
TGI [17]: > 100 µM
TGI [18]: > 100 µM
TGI [19]: > 100 µM
TGI [20]: > 100 µM
TGI [21]: > 100 µM
TGI [22]: > 100 µM
TGI [23]: > 100 µM
TGI [24]: > 100 µM
TGI [25]: > 100 µM
TGI [26]: > 100 µM
TGI [27]: > 100 µM
TGI [28]: > 100 µM
TGI [29]: > 100 µM
TGI [30]: > 100 µM
TGI [31]: > 100 µM
TGI [32]: > 100 µM
TGI [33]: > 100 µM
TGI [34]: > 100 µM
TGI [35]: > 100 µM
TGI [36]: > 100 µM
TGI [37]: > 100 µM
TGI [38]: > 100 µM
TGI [39]: > 100 µM
TGI [40]: > 100 µM
TGI [41]: > 100 µM
TGI [42]: > 100 µM
TGI [43]: > 100 µM
TGI [44]: > 100 µM
TGI [45]: > 100 µM
TGI [46]: > 100 µM
TGI [47]: > 100 µM
TGI [48]: > 100 µM
TGI [49]: > 100 µM
TGI [50]: > 100 µM
TGI [51]: > 100 µM
TGI [52]: > 100 µM
TGI [53]: > 100 µM
TGI [54]: > 100 µM
TGI [55]: > 100 µM
TGI [56]: > 100 µM

CC(C)C(Cl)CC/C(CBr)=C(\Cl)CCl (stereo not drawn)
TGI [1]: 17.9 µM
TGI [2]: 2.49 µM
TGI [3]: 10.4 µM
TGI [4]: 22.2 µM
TGI [5]: 11.8 µM
TGI [6]: 30.6 µM
TGI [7]: 11 µM
TGI [8]: 31.2 µM
TGI [9]: 3.69 µM
TGI [10]: 28.3 µM
TGI [11]: 12.8 µM
TGI [12]: 10.4 µM
TGI [13]: 17 µM
TGI [14]: 23.9 µM
TGI [15]: 11.3 µM
TGI [57]: 7.73 µM
TGI [58]: 12 µM
TGI [16]: 31.1 µM
TGI [17]: 23.1 µM
TGI [18]: 34 µM
TGI [19]: 26.7 µM
TGI [20]: 6.16 µM
TGI [21]: 3.29 µM
TGI [22]: 5.64 µM
TGI [23]: 28 µM
TGI [24]: 35.7 µM
TGI [25]: > 20.3 µM
TGI [26]: 4.09 µM
TGI [27]: 19.6 µM
TGI [28]: 16.4 µM
TGI [29]: 4.65 µM
TGI [30]: 8.35 µM
TGI [31]: 4.26 µM
TGI [32]: 5.04 µM
TGI [33]: 1.29 µM
TGI [34]: 32.1 µM
TGI [35]: 5.63 µM
TGI [36]: 36.1 µM
TGI [37]: > 79.1 µM
TGI [38]: 2.24 µM
TGI [39]: 17.8 µM
TGI [40]: 5 µM
TGI [41]: 4.06 µM
TGI [42]: 26.3 µM
TGI [43]: 30.8 µM
TGI [44]: 8.65 µM
TGI [45]: 10 µM
TGI [46]: 29.6 µM
TGI [47]: 29.5 µM
TGI [48]: 8.36 µM
TGI [49]: 7.34 µM
TGI [50]: 5.95 µM
TGI [53]: 11.7 µM
TGI [54]: 10.2 µM
TGI [55]: 1.2 µM
TGI [59]: 29.3 µM
TGI [56]: 3.99 µM

COC(=O)/C=C(\S/C(=C(/c1ccc(OC)cc1)n1cc(C(=O)OC)c(C(=O)OC)n1)c1ccc(OC)cc1)C(=O)OC
TGI [1]: 6.41 µM
TGI [3]: 37.9 µM
TGI [4]: > 100 µM
TGI [5]: > 100 µM
TGI [6]: > 100 µM
TGI [7]: 25.3 µM
TGI [8]: 69.7 µM
TGI [9]: > 100 µM
TGI [10]: > 100 µM
TGI [11]: 8.64 µM
TGI [12]: 13.2 µM
TGI [13]: > 100 µM
TGI [14]: > 100 µM
TGI [15]: 29.4 µM
TGI [58]: > 100 µM
TGI [16]: > 100 µM
TGI [17]: > 100 µM
TGI [18]: 49.5 µM
TGI [20]: > 100 µM
TGI [21]: 10.2 µM
TGI [22]: > 100 µM
TGI [23]: 19 µM
TGI [24]: > 100 µM
TGI [25]: > 100 µM
TGI [26]: 22.5 µM
TGI [27]: 37.1 µM
TGI [28]: > 100 µM
TGI [29]: 4.8 µM
TGI [30]: 31.3 µM
TGI [31]: > 100 µM
TGI [32]: 26.9 µM
TGI [33]: > 100 µM
TGI [34]: 78.8 µM
TGI [35]: > 100 µM
TGI [36]: > 100 µM
TGI [37]: > 100 µM
TGI [38]: 7.64 µM
TGI [39]: > 100 µM
TGI [40]: > 100 µM
TGI [41]: > 100 µM
TGI [42]: 40.3 µM
TGI [43]: 16 µM
TGI [44]: > 100 µM
TGI [45]: 34.2 µM
TGI [46]: 18.5 µM
TGI [47]: > 100 µM
TGI [48]: > 100 µM
TGI [49]: 68.3 µM
TGI [50]: > 100 µM
TGI [52]: 15.4 µM
TGI [53]: 30.7 µM
TGI [54]: 51.4 µM
TGI [55]: 25.4 µM
TGI [59]: > 100 µM
TGI [56]: > 100 µM
